Calls of active or inactive are those of the source.
Legend:
[1] = target: T1, Galanin receptor type 3 (Homo sapiens, UniProt O60755); assay: Fluorescence-based cell-based primary high throughput dose response assay to identify antagonists of the Galanin Receptor 3 (GalR3).; assay type: functional
T1 sequence (O60755 whole entry): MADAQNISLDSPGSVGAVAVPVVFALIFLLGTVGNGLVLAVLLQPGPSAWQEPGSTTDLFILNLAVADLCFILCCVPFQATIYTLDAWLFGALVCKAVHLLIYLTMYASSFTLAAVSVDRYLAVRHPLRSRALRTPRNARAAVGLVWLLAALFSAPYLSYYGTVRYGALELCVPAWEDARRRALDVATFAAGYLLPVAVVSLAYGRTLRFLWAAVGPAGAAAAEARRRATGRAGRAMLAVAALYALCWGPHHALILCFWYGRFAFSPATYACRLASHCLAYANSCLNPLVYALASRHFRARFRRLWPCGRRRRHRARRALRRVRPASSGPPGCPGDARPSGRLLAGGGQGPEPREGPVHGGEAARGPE

[2] = inhibitors of firefly luciferase expression or activity, dose response, H4 neuroglioma cells, luminescence (AID 1990); assay type: functional, cell-based
[3] = NIH-3T3 fibroblast cytotoxicity, dose response, cytotoxicity control, cell-based, fluorescence, Alamar Blue, secondary assay (AID 2327); assay type: functional;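 further: NIH-3T3 mouse fibroblasts cultured with fluconazole at 8 µg/mL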
[4] = target: T2, Serine/threonine-protein phosphatase (Candida dubliniensis (strain CD36 / CBS 7987 / NCPF 3949 / NRRLY-17841) (Yeast), UniProt B9W6M3); assay: calcineurin pathway inhibitors in yeast reporter, dose response, S. cerevisiae, CDRE-lacZ, luminescence, secondary (AID 2388); assay type: functional, cell-based;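 further: yeast reporter cells carrying a calcineurin-responsive lacZ construct stimulated with calcium chloride; luminescent beta-galactosidase reporter signal in whole cells rather than isolated phosphatase activity; potency for inhibition where a drop in reporter signal means calcineurin blockade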
T2 sequence (B9W6M3 whole entry): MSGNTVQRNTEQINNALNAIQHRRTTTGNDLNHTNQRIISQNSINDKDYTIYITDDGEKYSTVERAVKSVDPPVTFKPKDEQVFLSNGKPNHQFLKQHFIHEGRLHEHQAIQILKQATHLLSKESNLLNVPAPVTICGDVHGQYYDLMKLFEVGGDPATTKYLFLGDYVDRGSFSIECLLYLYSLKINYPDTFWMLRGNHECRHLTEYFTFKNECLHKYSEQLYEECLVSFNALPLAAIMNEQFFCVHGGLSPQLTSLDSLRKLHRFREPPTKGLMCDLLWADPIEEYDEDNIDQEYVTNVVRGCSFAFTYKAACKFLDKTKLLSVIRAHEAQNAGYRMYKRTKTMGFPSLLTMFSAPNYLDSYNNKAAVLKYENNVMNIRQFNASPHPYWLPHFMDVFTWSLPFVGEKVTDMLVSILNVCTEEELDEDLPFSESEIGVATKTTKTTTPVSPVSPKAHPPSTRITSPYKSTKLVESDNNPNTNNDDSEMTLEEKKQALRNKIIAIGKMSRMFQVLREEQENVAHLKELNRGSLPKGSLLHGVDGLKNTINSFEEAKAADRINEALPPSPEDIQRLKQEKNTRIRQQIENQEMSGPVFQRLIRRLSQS

[5] = cells; details: A549
[6] = inhibitors of SNCA 5'UTR-driven reporter translation, confirmation, H4 neuroglioma cells, luminescence (AID 1988); assay type: functional, cell-based
[7] = target: T3, Neuropeptide Y receptor type 1 (Homo sapiens, UniProt P25929); assay: NPY-Y1 receptor antagonist potency, dose response, cell-based (AID 1277); assay type: functional
T3 sequence (P25929 whole entry): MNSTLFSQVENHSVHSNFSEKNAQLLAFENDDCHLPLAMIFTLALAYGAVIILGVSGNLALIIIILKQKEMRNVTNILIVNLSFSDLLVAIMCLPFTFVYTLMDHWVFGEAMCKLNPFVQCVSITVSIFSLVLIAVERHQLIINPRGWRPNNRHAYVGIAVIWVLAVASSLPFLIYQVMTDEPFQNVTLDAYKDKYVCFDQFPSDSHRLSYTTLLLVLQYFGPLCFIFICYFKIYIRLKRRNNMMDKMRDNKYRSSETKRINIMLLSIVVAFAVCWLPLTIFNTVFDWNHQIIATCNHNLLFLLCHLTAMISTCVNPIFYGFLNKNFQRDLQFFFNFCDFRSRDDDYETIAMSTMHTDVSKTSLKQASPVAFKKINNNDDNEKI

[8] = cells
[9] = cells; details: HEK293
[10] = target: T4, Neuropeptide Y receptor type 2 (Homo sapiens, UniProt P49146); assay: NPY-Y2 antagonist potency, selectivity check, dose response, counter-screen for NPY-Y1 antagonist project, cell-based (AID 1278); assay type: functional
T4 sequence (P49146 whole entry): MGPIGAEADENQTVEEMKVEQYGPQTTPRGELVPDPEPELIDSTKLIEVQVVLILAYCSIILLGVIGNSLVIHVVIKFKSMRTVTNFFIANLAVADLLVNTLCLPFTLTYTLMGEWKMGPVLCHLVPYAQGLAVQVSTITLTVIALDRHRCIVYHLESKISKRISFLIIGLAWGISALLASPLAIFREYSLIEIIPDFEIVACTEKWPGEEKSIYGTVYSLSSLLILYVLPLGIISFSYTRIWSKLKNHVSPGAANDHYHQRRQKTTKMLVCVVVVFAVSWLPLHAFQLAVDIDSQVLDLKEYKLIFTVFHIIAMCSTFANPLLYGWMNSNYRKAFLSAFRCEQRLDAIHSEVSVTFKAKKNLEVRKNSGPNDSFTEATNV

[11] = target: T5, DNA repair protein RAD52 homolog (Homo sapiens, UniProt P43351); assay type: functional, biochemical
T5 sequence (P43351 whole entry): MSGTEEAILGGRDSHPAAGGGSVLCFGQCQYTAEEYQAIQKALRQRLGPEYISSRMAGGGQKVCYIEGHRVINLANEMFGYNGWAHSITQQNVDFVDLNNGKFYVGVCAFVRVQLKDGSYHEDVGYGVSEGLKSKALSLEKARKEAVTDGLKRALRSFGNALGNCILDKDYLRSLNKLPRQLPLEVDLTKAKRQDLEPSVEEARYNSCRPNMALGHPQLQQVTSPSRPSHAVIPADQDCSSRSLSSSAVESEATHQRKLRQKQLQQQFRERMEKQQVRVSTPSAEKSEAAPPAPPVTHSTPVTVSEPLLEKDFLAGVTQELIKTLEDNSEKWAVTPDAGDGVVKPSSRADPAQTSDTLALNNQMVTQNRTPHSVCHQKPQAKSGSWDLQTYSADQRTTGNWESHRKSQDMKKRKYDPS

[12] = target: ATP-dependent molecular chaperone HSP82 (Candida albicans (strain WO-1) (Yeast), UniProt C4YTQ8); assay: loss of DOC-induced GRE-beta-galactosidase reporter signal, dose response, Hsp90 inhibitor project, S. cerevisiae, luminescence (AID 2400); assay type: functional, cell-based;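 further: beta-galactosidase luminescence from glucocorticoid response element reporter as proxy for Hsp90 function; inhibitor potency where signal loss means Hsp90 inhibition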
[13] = inhibitors of intracellular T. cruzi replication, confirmation, NIH3T3 host cells, beta-gal luminescence (AID 2044); assay type: functional, cell-based;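 further: intracellular parasites grown in NIH/3T3 mouse fibroblasts as host cells; luminescent beta-galactosidase reporter signal from transgenic T. cruzi replicating inside host cells; inhibitors lower the luminescence signal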
[14] = C. albicans growth with fluconazole, confirmation, fluorescence, retest (AID 2467); assay type: functional, cell-based
[15] = HepG2 cell cytotoxicity, dose response, cytotoxicity control, ATP luminescence, cherry-pick, set 6 (AID 1053125); assay type: functional, cell-based
[16] = cells; assay type: functional, cell-based; details: HEK-CNG
[17] = Luminescence Cell-Based Dose Response HTS to Identify Inhibitors of 5'UTR Stem-Loop Driven Prion Protein mRNA Translation in H4 Neuroglioblastoma Cells. [Related pubchem assays: 1827 (Project Summary), 1813 (Primary HTS)]; assay type: functional
[18] = cytotoxicity toward NIH3T3 fibroblasts, dose response, counter-screen, cell-based, ATP luminescence, mouse fibroblasts (AID 2010); assay type: functional;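 further: cells exposed to compound for about 90 hours before reading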

ATP-dependent molecular chaperone HSP82, sequence (C4YTQ8 whole entry): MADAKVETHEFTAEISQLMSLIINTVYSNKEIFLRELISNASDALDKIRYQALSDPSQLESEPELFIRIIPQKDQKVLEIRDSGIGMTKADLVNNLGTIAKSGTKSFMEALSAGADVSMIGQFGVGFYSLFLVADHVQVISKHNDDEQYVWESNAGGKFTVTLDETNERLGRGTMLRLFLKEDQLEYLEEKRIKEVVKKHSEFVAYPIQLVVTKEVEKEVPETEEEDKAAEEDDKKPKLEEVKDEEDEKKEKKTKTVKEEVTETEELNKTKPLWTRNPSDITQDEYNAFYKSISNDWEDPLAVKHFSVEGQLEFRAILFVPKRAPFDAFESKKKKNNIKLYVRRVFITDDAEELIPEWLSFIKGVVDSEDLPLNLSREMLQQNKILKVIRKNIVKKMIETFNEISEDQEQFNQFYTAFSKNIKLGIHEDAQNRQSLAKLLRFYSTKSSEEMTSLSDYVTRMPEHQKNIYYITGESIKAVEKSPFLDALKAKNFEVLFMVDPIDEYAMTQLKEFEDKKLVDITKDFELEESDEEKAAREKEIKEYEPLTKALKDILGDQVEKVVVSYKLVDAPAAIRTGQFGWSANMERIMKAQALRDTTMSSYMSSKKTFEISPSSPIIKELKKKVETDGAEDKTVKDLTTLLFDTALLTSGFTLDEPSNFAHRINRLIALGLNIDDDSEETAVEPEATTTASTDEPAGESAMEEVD

For `CC[n+]1c(/C=C2\SC(c3ccccc3C)=CN2C)sc2ccccc21`, the IC50 [1] was 0.404 µM (active), the EC50 [2] was 8.74 µM (active) and the EC50 [3] was > 150 µM (inactive). For the same compound, the EC50 [4] was > 180 µM (inactive), the AC50 [5] was 2.44 µM (active) and the EC50 [6] was 0.619 µM (active). For the same compound, the IC50 [7] was 6.98 µM (active), the EC50 [8] was 0.021 µM (active) and the AC50 [9] was 2.77 µM (active). The IC50 [10] was 29.6 µM (not active), the AC50 [11] was 8.2 µM (active) and the EC50 [12] was > 150 µM (inactive). For the same compound, the EC50 [13] was < 0.1 µM (active), the EC50 [14] was 0.212 µM (active) and the AC50 [15] was 2.18 µM (active). The EC50 [16] was > 29.9 µM (inactive), the EC50 [17] was 8.01 µM (active) and the EC50 [18] was 7.48 µM (active).
